Experimental data published in US20160199361A1, “Method of Inducing An Anti-Retroviral Immune Response By Counter-Acting Retro-Virus Induced Anti-Apoptosis” (RUTGERS, THE STATE UNIVERSITY OF NEW JERSEY, priority 2013, published 2016).
Entries after “also recorded” stand apart in the source; their conditions may differ.

Experiments:
HIV-1 [1] = conditions: zidovudine monotherapy, reference range; cited from earlier work
[2] = test system: clinical isolates of HIV-1; test: HIV-1 p24 and HIV-1 RNA in isolate-infected, long-term replenished primary cell (PBMC) cultures; assay type: cell-based; conditions: for p24 relative to controls: within two weeks, PBMCs stably infected with clinical isolates; for number of infective virions produced: use without interruption for up to three weeks, unchanged at least three months after discontinuation
Description: Reagents and cells. Drug-grade deferiprone was kindly provided by Apotex (Toronto, Canada). PBMCs were isolated from the blood of healthy donors, per an IRB-approved protocol, and stimulated overnight with phytohemagglutinin (PHA) and human IL-2. Stimulated cells were pelleted and resuspended for culture at a final concentration of 0.5×10^6 cells/ml in PHA-free RPMI 1640 medium containing 10% fetal calf serum (v/v), 100 units/ml penicillin G, 100 μg/ml streptomycin, 2 mM […], and 3.5 ng/ml human IL-2 (Medium B). Cultures were incubated at 37° C., 5% CO2, and 95% humidity.
To obtain clinical isolates of HIV-1, donors were consented to provide blood samples per an IRB-approved protocol. For infection, 5×10^6 uninfected stimulated PBMCs were co-cultured with 10×10^6 PBMCs from one of the HIV-infected donors in Medium B. On day 3, half of the supernatant was removed and replenished with an equal volume of fresh Medium B. On day 7, the medium was likewise replenished and 7.5×10^6 stimulated uninfected PBMCs were added. On days 10, 17, and 24, half of the supernatant was replenished. On days 14, 21, and 28, stimulated uninfected PBMCs were added. Cells were harvested when p24 reached 250 pg/ml, cryopreserved in freezing medium (90% fetal calf serum, 10% dimethyl sulfoxide), and stored in liquid nitrogen as infected PBMC stock. Cell-free supernatants were stored at −80° C.
(§1) To establish persistent infection of cultured PBMCs, uninfected cells (5×10^6 cells) and infected PBMC stock (0.5×10^6 cells) were co-incubated in a 25 ml culture flask at a final concentration of 0.22×10^6 cells/ml. Cultures were allowed to establish productive infection, defined by medium p24 at or above 250 pg/ml, and deferiprone was added. Cultures were replenished with Medium B and freshly isolated uninfected PBMCs on alternate days. For replacement of Medium B, half of the supernatant was gently exchanged without disturbing the cells, and the drug concentration was adjusted appropriately. For replacement with freshly isolated, stimulated and uninfected PBMCs, half of the cells and supernatant were removed and replaced with 2.5×10^6 cells in the proper volume of Medium B, with adjustment of the drug concentration. Cell-free supernatants were saved for p24 and viral RNA measurements.
(§2) Detection of p24, viral RNA, and viral DNA. p24 core antigen in the supernatant was quantified by ELISA (Retrotek HIV-1 p24™; ZeptoMetrix Corp.; Buffalo, N.Y.). HIV-1 RNA copy number in the supernatant of PBMC cultures and in plasma of patients enrolled in the exploratory deferiprone trial was determined with a PCR-based and FDA-approved assay (Amplicor HIV-1 Monitor™; Roche Diagnostics Corp.; Indianapolis, Ind.). For clinical samples, the assay was used per the Standard Specimen Processing Procedure (sensitivity limit 400 copies/ml); for cell culture samples, the assay was used in both the Standard Specimen Processing and the UltraSensitive Specimen Processing Procedure (sensitivity limit 50 copies/ml). The Roche Amplicor HIV-1 DNA Test (Roche Diagnostics Corp.; Indianapolis, Ind.) was used for qualitative detection of HIV-1 DNA.

HIV-1 DNA = test: Qualitative detection of HIV-1 DNA in infected replenished PBMC cultures; assay type: cell-based; conditions: 200 μM, 10 days of post-cessation monitoring
Description: as §1
Detection of p24, viral RNA, and viral DNA. p24 core antigen in the supernatant was quantified by ELISA (Retrotek HIV-1 p24™; ZeptoMetrix Corp.; Buffalo, N.Y.). HIV-1 RNA copy number in the supernatant of PBMC cultures and in plasma of patients enrolled in the exploratory deferiprone trial was determined with a PCR-based and FDA-approved assay (Amplicor HIV-1 Monitor™; Roche Diagnostics Corp.; Indianapolis, Ind.). […]

PBMCs = test: Cell viability and apoptotic volume decrease by trypan blue image analysis in replenished PBMC cultures; assay type: cell-based, human; conditions: 200 μM
Description: Quantitation of cell number, viability, diameter, and apoptotic volume decrease. These parameters were measured in PBMC cultures by computerized image analysis of trypan blue exclusion (VI-CELL™; Beckman Coulter; Fullerton, Calif.).

[3] = test system: PBMCs acutely infected with HIV-1; test: Apoptotic DNA fragmentation (TUNEL) in non-replenished short-term PBMC cultures infected with HIV-1 isolate; assay type: cell-based, human
Description: (§3) Reagents and cells. Drug-grade deferiprone was kindly provided by Apotex (Toronto, Canada). PBMCs were isolated from the blood of healthy donors, per an IRB-approved protocol, and stimulated overnight with phytohemagglutinin (PHA) and human IL-2. […] Cultures were incubated at 37° C., 5% CO2, and 95% humidity. DNA fragmentation assay. Apoptotic DNA fragmentation was quantified flow-cytometrically, using a TUNEL (terminal deoxynucleotide transferase dUTP nick end-labeling) assay (APO-BRDU™; Phoenix Flow Systems; San Diego, Calif.).

infected T-cell lines = test: Suppression of HIV-1 generation and selective induction of apoptosis in infected T-cell lines; assay type: cell-based
HIV-1 [4] = test: Exploratory pilot trial: plasma HIV-1 RNA in HIV-1-infected treatment-naive persons; assay type: in vivo, human
Description: as §2
Two oral dose levels of deferiprone were tested, 33 mg/kg (33 mg/kg QD on days 1 and 7, and 33 mg/kg TID on days 2-6 [seven asymptomatic HIV-infected antiretroviral-naive persons]) and 50 mg/kg (50 mg/kg QD on days 1 and 7, and 50 mg/kg TID on days 2-6 [six healthy volunteers and seven asymptomatic HIV-infected antiretroviral-naive persons, four of whom completed the treatment period]).
Each cohort was unblinded only at study completion. […] Secondary parameters included pharmacokinetic variables (e.g. peak serum concentration) in serum, drawn after initial drug ingestion at fixed hours (0, 0.5, 1, 1.5, 2, 3, 4, 6, 9, 12). […] Viral load was measured as described above.
For the cell culture experiments with deferiprone and the exploratory clinical trial, descriptive statistics were generated using Microsoft Excel 2011. In the exploratory trial, outcome analysis was performed to assess the intercohort and intraindividual virological response to deferiprone, using Student's t-test for log10-based analysis of the time-specified differentials (Δ log) between the cohort identified medians (±standard error of the mean [SEM]) generated from the multiple measurements per subject on treatment minus before treatment. (‘response’ in the first stage of the protocol) and off treatment minus before treatment (‘rebound’ in the second stage of the treatment). P<0.05 was used as criterion for statistical significance. […] To assess the in vivo antiretroviral activity of deferiprone in a hypothesis-independent manner, the Δ log of the HIV-1 RNA levels achieved in the first and the second stage of the protocol was analyzed after post-treatment segregation into ‘responders’ and ‘non-responders’ per the discontinuation trial design (DTD).

uninfected PBMCs = test: Apoptotic DNA fragmentation (TUNEL) in non-replenished short-term uninfected PBMC cultures; assay type: cell-based, human; conditions: 30 μM, 144 hours
Description: as §3

## Cc1cn([C@H]2C[C@H](N=[N+]=[N-])[C@@H](CO)O2)c(=O)[nH]c1=O [zidovudine]
HIV-1 [1]
  viral load decline on monotherapy: −0.3 log10

## Cc1c(O)c(=O)ccn1C [deferiprone, 3-hydroxy-1,2-dimethylpyridin-4(1H)-one]
[2]; 100 μM, 35 days of treatment
  rate of viral RNA rebound after cessation of drug: +0.24 log10/ml/day
[2]; 100 μM, infected replenished cultures, weeks of treatment
  decrease of viral copy number versus set-point of controls: decreased by just one log
[2]; 100 μM
  p24 relative to controls: ≤ 10 % of controls
[2]; 200 μM
  viral RNA nadir: 10^3 copies/ml
  p24 relative to controls: ≤ 10 % of controls
[2]; 200 μM, 16-day treated cultures
  reduction of viral RNA copies versus infected untreated controls: reduced by three orders of magnitude
[2]; 200 μM, after 90 days off-treatment
  re-emergence of productive infection off-treatment: no re-emergence of productive infection
[2]; 200 μM, continuous treatment
  decline of viral copy number: falling by three logs
[2]; 200 μM, depending on isolate - primary cell combination
  time to reach nadir of <10^3 copies/ml: 2-4 weeks
[2]; 200 μM, off drug, replenished cultures
  HIV-1 RNA rebound after drug discontinuation: viral RNA rebound is absent off drug; also recorded: did not rebound
[2]; 200 μM, post-treatment
  viral RNA after continued observed decline: < 10^2 copies/ml
[2]; 200 μM, appears to continue up to five days post cessation
  on-drug rate of viral RNA decline: −0.04 log10/ml/day
[2]; after cessation of 100 μM
  time for post-treatment rebound to reacquire set-point: ≤ 72 h
[2]; below 100 μM
  p24 expression and viral copy number: marginally affected
[2]; month-long monotherapy
  viral breakthrough: did not elicit viral breakthrough
[2]
  number of infective virions produced: undetectable levels
HIV-1 DNA
  HIV-1 DNA in post-treatment cultures: either negative or at the lower limit of detectability
PBMCs
  apoptotic volume decrease: not detectable
  viability (trypan blue): ≥ 95%
[3]; 200 μM, non-replenished short-term cultures
  induced apoptosis in infected versus uninfected PBMCs: significantly (P≦0.009) exceeded that in uninfected PBMCs
Infected T-cell lines
  concentration required for effective suppression of HIV-1 generation and selective induction of apoptosis: at least 150 μM
HIV-1 [4]; 50 mg/kg po TID group
  Δ log10 HIV-1 RNA, acute decline coinciding with peak concentrations ≧150 μM: −0.44±0.1 log10
HIV-1 [4]; Group A, the 6 of 7 with decline
  Δ log10 HIV-1 RNA D7 vs. D1, subjects with acute viral load decline: −0.42±0.05 log10
HIV-1 [4]; Group A, ≧150 μM in serum
  subjects with acute viral load decline: 6 of 7
HIV-1 [4]; Group A, ≧150 μM in serum, 33 or 50 mg/kg po TID, N=7
  Δ log10 HIV-1 RNA D7 vs. D1: −0.40±0.1 log10
HIV-1 [4]; Group B, did not achieve ≧150 μM in serum, deferiprone N=4
  Δ log10 HIV-1 RNA D7 vs. D1: +0.17±0.07 log10
HIV-1 [4]; end of first stage, 6 responders, 5 non-responders
  difference responders vs non-responders, Δ log10 D7 vs. D1: 0.64 log10
HIV-1 [4]; end of second stage, 5 responders, 5 non-responders, off drug
  difference responders vs non-responders, Δ log D53 vs. D1: 0.54 log
HIV-1 [4]; off-drug, human
  duration of persistent off-drug suppression as multiple of drug half-life: ≥ 200 times the half-life
HIV-1 [4]; serum, 11 treated subjects, P=0.0152 Fisher's Exact test
  antiretrovirally effective in vivo threshold (serum concentration): ≥ 150 µM
HIV-1 [4]; seven weeks post-treatment after one-week pulse
  acute responders that did not reacquire viral load baseline: 80%

## Cc1cc(C2CCCCC2)n(O)c(=O)c1 [ciclopirox]
[2]
  number of infective virions produced: undetectable levels
[3]; 30 μM, 144 hours after inoculation
  cells with fragmented DNA (apoptotic), infected treated cultures: 71.8±8.8%
Uninfected PBMCs
  cells with fragmented DNA (apoptotic), uninfected treated cultures: 24.1±3.2%
